Assay results from PubChem BioAssay AID504843 (Broad Institute, 2011).
Calls of active or inactive are those of the source. How the calls were made is not given here.

System: bacterial growth, BacTiter-Glo ATP luminescence
Assay: bacterial growth inhibition, dose response, counter-screen, BacTiter-Glo luminescence, cherry-picked samples (AID 504843);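 further: growth measured after 8 h incubation at 30 °C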

CO[C@H]1C=CO[C@@]2(C)Oc3c(C)c(O)c4c(O)c(c(C=NN5CCN(C)CC5)c(O)c4c3C2=O)NC(=O)C(C)=CC=C[C@H](C)[C@H](O)[C@@H](C)[C@@H](O)[C@@H](C)[C@H](OC(C)=O)[C@@H]1C
AC50: > 15 µM (inactive)
